Data taken from publication PMC9920260, “Chemical Modification of Auranofin Yields a New Family of Anticancer Drug Candidates: The Gold(I) Phosphite Analogues” (Molecules, 2023).
Like-named read-outs stand apart in the source and are kept apart here.

Legend:
[1] = Water solubility by quantitative 1H NMR of saturated solution; assay type: physicochemical; conditions: saturated solution in D2O, heated to 40 °C and sonicated 90 min, cooled to room temperature, quantitative 1HNMR vs Me2SO2
Description: (§1) For determining the solubility of investigated compounds, 5 mg of the selected gold(I) complex was suspended in an Eppendorf test tube with 300 μL of D2O and 300 μL of a Me2SO2/D2O solution 6.94 mM (Me2SO2 final conc. 3.47 mM). The suspension was heated to 40 °C and sonicated for 90 min. The resulting saturated solution was left to cool to room temperature, decanted, transferred to an NMR tube and then analyzed through quantitative ^1HNMR spectroscopy (tilt angle = 45°; recycle delay = 4 s; number of scans = 16). The concentration (solubility) was calculated by the relative integral (related to phosphine or phosphite -CH3 groups) with respect to Me2SO2 singlet (δ = 3.14 ppm). LogP values were determined through a modification of the shake-flask method reported in [22]. More precisely, in a 15 mL Falcon tube, roughly 2 mg of the sample was added in 2 mL of n-octanol-saturated water and 2 mL of water-saturated n-octanol. The mixture was hand shaken for ten minutes, and then 0.5 mL of each phase were moved in two different mineralization tubes together with 1 mL of metal-free concentrated nitric acid. The mixtures were heated overnight at 90 °C, then diluted with 4.5 mL of ultrapure water. The gold concentration in each sample was determined through ICP-OES and the respective LogP values were calculated through the ratio between octanol and water gold concentrations.

[2] = set-up: method as in PMID 29057040; conditions: reported values; cited from earlier work
[3] = LogP, modified shake-flask method with ICP-OES gold determination; assay type: physicochemical; conditions: n-octanol/water, gold concentration by ICP-OES
Description: as §1

[4] = system: A2780 ovarian cancer cells; experiment: MTT cytotoxicity assay, A2780; assay type: cell-based, human; conditions: A2780, 72 h of treatment, three independent experiments
Description: (§2) RPMI 1640 cell culture medium, fetal bovine serum (FBS), and phosphate-buffered saline (PBS) were obtained from Euroclone (Milan, Italy). Thiazolyl blue tetrazolium bromide (MTT) was obtained from Merck Life Science (Milan, Italy). The human ovarian cancer cell lines A2780, A2780/CDDP-R (cisplatin-resistant) and SKOV3 were obtained from ATCC. Cell lines were maintained in RPMI-1640 supplemented with 10% fetal calf serum (FCS) and antibiotics (penicillin, 100 U/mL; streptomycin, 100 μg/mL) at 37 °C in a 5% CO2 humidified atmosphere and subcultured twice weekly. Split 1:5 (3–6 × 10^4 cells per mL).
(§3) The cytotoxic effects of auranofin analogues on ovarian cancer cell lines were determined by using the colourimetric MTT (3-(4,5-dimethylthiazol-2-yl)-2,5-diphenyltetrazolium bromide) assay. Viable cells can metabolize MTT into formazan, a blue-coloured compound that is detectable at 595 nm. […] Following precipitation, blue formazan was dissolved in 100 µL of DMSO, and the optical density was read in a microplate reader interfaced with Microplate Manager/PV version 4.0 software (BioRad Laboratories, Hercules, CA, USA). From the absorbance measurements, the half-maximal inhibitory concentration (IC50) value of each compound on ovarian cancer cells was calculated using GraphPad Prism software version 6.0 (Graphpad Holdings, LLC, Boston, MA, USA). […]

[5] = system: cisplatin-resistant A2780 (A2780R) ovarian cancer cells; experiment: MTT cytotoxicity assay, A2780R; assay type: cell-based, human; conditions: 72 h of treatment, three independent experiments
Description: as §2, §3

[6] = system: SKOV-3 ovarian cancer cells; experiment: MTT cytotoxicity assay, SKOV-3; assay type: cell-based, human; conditions: SKOV-3, 72 h of treatment, three independent experiments
Description: as §2, §3

[7] = system: thioredoxin reductase (TrxR); conditions: A2780 cells, 24 h of treatment at the 72 h exposure IC50 dose
Description: The analysis was performed in triplicate.
Experiments were performed in triplicate.

[8] = system: thioredoxin reductase (TrxR); set-up: method as in PMID 32497830; conditions: auranofin, previously demonstrated; cited from earlier work

SMILES	Water solubility [1] [millimolar]	LogP [2]	LogP [3]	IC50 [4] [nM]	IC50 [5] [nM]	IC50 [6] [nM]	residual TrxR enzyme activity with respect to controls [7]	inhibition of TrxR activity [8]
CCP(CC)CC.[Au+].[Cl-] [Au(PEt3)Cl]	0.68	1.7	–	–	–	–	–	–
CC[P](CC)(CC)[Au][I] [Au(PEt3)I]	0.08	4.6	–	–	–	–	–	–
CO[PH](OC)(OC)[Au][S]C1OC(COC(C)=O)C(OC(C)=O)C(OC(C)=O)C1OC(C)=O (stereo not shown) [AuP(OCH3)3SAtg]	2.76	–	−0.7	1260 ± 220	2980 ± 230	2440 ± 320	about 55%	–
CC(=O)OC[C@H]1O[C@@H]([S-])[C@H](OC(C)=O)[C@@H](OC(C)=O)[C@@H]1OC(C)=O.CCP(CC)CC.[Au+] [auranofin, 1-Thio-β-D-glucopyranosatotriethylphosphine gold-2,3,4,6-tetraacetate]	0.34	1.6	–	–	–	–	–	40–50%
